Measured values from US20090004137A1, “Uridine Derivatives as Antiviral Drugs Against a Flaviviridae, Especially Hcv” (priority 2004, published 2009).
pIC50: −log10 of the molar value.

Assays:
[1] = tested on: subgenomic HCV replicon BM4-5 in Huh7 cells; assay: Antiviral assay on HCV subgenomic replicon, Northern blot of (+)-strand HCV RNA; format: cell-based, Hepatitis C Virus; conditions: for pIC50 / IC90: Hepatitis C virus, 72 h, Huh7 BM4-5 replicon, positive strand HCV RNA by Northern blot, three days treatment; for pIC50: read-out: IC50, anti-HCV activity, (+)-RNA; for Selectivity Index (SI), ratio between CC50 and IC50: replicon system; for IC90: read-out: IC90, anti-HCV activity, (+)-RNA
Method: (§1) Antiviral and Cytotoxicity assays for HCV. Huh7 cells harbouring the subgenomic HCV replicon BM4-5 (J. T. Guo et al., J. Virol. 2001, 75: 8516-8523) were used in this study. Cells were maintained in Dulbecco's modified Eagle's medium high glucose 4.5 g/l (LifeTechnlogies) supplemented with 10% fetal bovine serum, 1% L-glutamine, 1% penicillin and streptomycin, 1% L-Pyruvate and 500 μg/ml of geneticien (G418, Invitrogen). Geneticin was used to select cells permitting the HCV RNA replication. Cells were passaged every four days with a 1:4 ratio.
Cells were seeded in 6-wells plates at a density of 2.5×10^5 cells per well, sixteen hours before the beginning of treatment. […] The administration of each drug was renewed every day for three consecutive days. Ribarivin (ICN Pharmaceuticals), mycophenolic acid (MPA, Sigma), and interferon alpha-2b (IntronA®)) were used in the same conditions as positive controls. The concentrations used for these drugs were respectively: 0; 0.5; 1; 2; 4; 8; 16; 32; 64; 128; 256 and 512 μM for ribavirin, 0; 2.5; 5; 10; 20; 40 μM for mycophenolic acid, and 0; 0.1; 1; 10; 100 and 1000 Ul/mL for IFN alpha-2b. Total RNA was extracted at the end of treatment (24 hours after the last day of treatment) with the <<Extract all>> reagent (Eurobio), which is a mix of phenol and guanidium thiocyanate. Northern blot analysis was then performed using the NorthernMax™-Gly kit (Ambion), following manufacturer's instructions. Five micrograms of total RNA were denaturated in glyoxal buffer at 50° C. for 30 minutes, separated by 1.1% agarose gel electrophoresis, and then transferred for 12 hours onto a charged nylon membrane (HybondN+, Amersham). Hybridization was carried out with three different [^32P]CTP-labelled riboprobes obtained by in vitro transcription (Riboprobe in vitro transcription system, Promega). Two probes were complementary to the NS5A region of the HCV genome of negative polarity and positive polarity. A third probe was complementary to the beta-actin mRNA and obtained by in vitro transcription from a specific plasmid (PTRI beta actin human, reference 7424, Ambion). First, the blot was hybridized with the riboprobes directed against the negative strand of HCV RNA and beta-actin mRNA, respectively. After one night of hybridization at 68° C., the membrane was washed, then exposed to X-ray film and a phosphor screen (phosphorimager). This screen was then scanned and quantitative analysis was achieved using ImageQuant software. The amount of beta-actin mRNA was used as an internal loading control to standardize the amount of HCV RNA detected. The same membrane was subsequently hybridized with the […] to determine the level of positive strand HCV RNA, suing the same approach.

[2] = Cell viability (neutral red) on the replicon system; format: cell-based; conditions: human, Huh7 cells harbouring the subgenomic HCV replicon BM4-5, neutral red test, drug renewed daily for three days, read-out: CC50, cytotoxicity on Replicon System
Method: as §1
For cell viability assays, cells were seeded in 96-well plates at a density of 12,500 cells per well. They were treated by the different molecules with the same concentrations and conditions than those used for the antiviral assays. Then, cell viability was measured by neutral red assay. Neutral red specifically colors lysosomes and its accumulation depends on cellular membrane integrity. The yield of neutral red incorporated in cells is proportional to the number of living cells. At the end of treatment, culture medium was removed; cells were washed by PBS, then coloured with neutral red at 0.005% for 3 hours at 37° C. Cells were then fixed 1 minute by formol calcium and lysed by atreatment with a vol/vol mixture of acetic acid and ethanol. After 15 minutes incubation, absorbance was read at 490 nm.

[3] = Cytotoxicity against CEM cells; format: cell-based; conditions: human
[4] = Cytotoxicity against PBM cells; format: cell-based; conditions: human
[5] = Cytotoxicity against VERO cells; format: cell-based; conditions: African green monkey

| Structure (SMILES) | melting point | pIC50 [1] | Selectivity Index (SI), ratio between CC50 and IC50 [1] | CC50 at 3 days [2] [µM] | IC90 [1] [µM] | CC50 [3] [µM] | CC50 [4] [µM] | CC50 [5] [µM] |
| --- | --- | --- | --- | --- | --- | --- | --- | --- |
| CC(=O)OC[C@H]1O[C@@H](n2cc(/C(I)=C\I)c(=O)[nH]c2=O)C[C@@H]1OC(C)=O | 76 to 78 °C | – | – | – | – | – | – | – |
| COc1c(C)c2c(c(O)c1C/C=C(\C)CCC(=O)O)C(=O)OC2 [MPA, mycophenolic acid, reference compound] | – | 4.40 | <1 | 7 | – | – | – | – |
| O=c1[nH]c(=O)n([C@H]2C[C@H](O)[C@@H](CO)O2)cc1/C(Br)=C\Br [Compound 17a, (E)-5-(1,2-Dibromovinyl)-2′-deoxyuridine] | – | > 3.70 | ≧1 | > 200 | > 200 | 43.9 | > 100 | > 100 |
| CC(=O)OC[C@H]1O[C@@H](n2cc(C#CI)c(=O)[nH]c2=O)[C@H](OC(C)=O)[C@@H]1OC(C)=O | 100 to 102 °C | – | – | – | – | – | – | – |
| O=c1[nH]c(=O)n([C@@H]2O[C@H](CO)C[C@H]2O)cc1/C(I)=C\I [Compound 14c, (E)-5-(1,2-Diiodovinyl)-3′-deoxyuridine] | – | < 3.70 | ≦1 | > 200 | > 200 | > 100 | 87.2 | 42.6 |
| CC(=O)OC[C@H]1O[C@@H](n2cc(/C(Br)=C\I)c(=O)[nH]c2=O)[C@H](OC(C)=O)[C@@H]1OC(C)=O | 86 to 88 °C | – | – | – | – | – | – | – |
| CC(=O)OC[C@H]1O[C@@H](n2cc(C#CI)c(=O)[nH]c2=O)C[C@@H]1OC(C)=O | 175 to 177 °C (dec.) | – | – | – | – | – | – | – |
| O=c1[nH]c(=O)n([C@@H]2O[C@H](CO)C[C@H]2O)cc1/C(Br)=C\Br [Compound 17c, (E)-5-(1,2-Dibromovinyl)-3′-deoxyuridine] | – | < 3.70 | ≦1 | > 200 | > 200 | 79.3 | > 100 | 7.8 |
| O=c1[nH]c(=O)n([C@H]2C[C@H](O)[C@@H](CO)O2)cc1/C(I)=C\I [Compound 14a, (E)-5-(1,2-Diiodovinyl)-2′-deoxyuridine] | 103 to 105 °C | < 3.79 | <1 | 76.7 | > 263 | 19.5 | 14.7 | 19.5 |
| O=c1[nH]c(=O)n([C@@H]2O[C@H](CO)C[C@H]2O)cc1C#CI [Compound 12c, 5-(2-Iodoethynyl)-3′-deoxyuridine] | – | < 3.70 | ≦1 | > 200 | > 200 | > 100 | > 100 | 3.2 |
| O=c1[nH]c(=O)n([C@@H]2O[C@H](CO)[C@@H](O)[C@H]2O)cc1/C(I)=C\I [Compound 14b, (E)-5-(1,2-Diiodovinyl)-uridine] | 107 to 109 °C | 3.79 | >1.5 | > 250 | > 250 | 41.7 | > 100 | 49.5 |
| O=c1[nH]c(=O)n([C@H]2C[C@H](O)[C@@H](CO)O2)cc1C#CBr [Compound 13a, 5-(2-Bromoethynyl)-2′-deoxyuridine] | – | < 3.70 | ≧1 | > 200 | > 200 | > 100 | > 100 | > 100 |
| CC(=O)OC[C@H]1O[C@@H](n2cc(C(Br)=CBr)c(=O)[nH]c2=O)C[C@@H]1OC(C)=O | 79 to 81 °C | – | – | – | – | – | – | – |
| O=c1[nH]c(=O)n([C@@H]2O[C@H](CO)[C@@H](O)[C@H]2O)cc1C#CI [Compound 12b, 5-(2-Iodoethynyl)-uridine] | – | < 3.70 | <1 | 148 | > 200 | > 100 | > 100 | > 100 |
| CC(=O)OC[C@@H]1C[C@@H](OC(C)=O)[C@H](n2cc(/C(I)=C\I)c(=O)[nH]c2=O)O1 | 75 to 77 °C | – | – | – | – | – | – | – |
| O=c1[nH]c(=O)n([C@H]2C[C@H](O)[C@@H](CO)O2)cc1/C(Cl)=C\I [Compound 16a, (E)-5-(1-Chloro-2-iodovinyl)-2′-deoxyuridine] | – | 4.10 | 2.7 | 213 | > 207 | 14.8 | 3.2 | 1.4 |
| CC(=O)OC[C@@H]1C[C@@H](OC(C)=O)[C@H](n2cc(C(Br)=CBr)c(=O)[nH]c2=O)O1 | 78 to 80 °C | – | – | – | – | – | – | – |
| O=c1[nH]c(=O)n([C@H]2C[C@H](O)[C@@H](CO)O2)cc1/C(Br)=C\I [Compound 15a, (E)-5-(1-Bromo-2-iodovinyl)-2′-deoxyuridine] | – | < 4.00 | <1 | 43 | > 100 | 0.13 | 13.3 | 6.6 |
| O=c1[nH]c(=O)n([C@@H]2O[C@H](CO)[C@@H](O)[C@H]2O)cc1/C(Br)=C\I [Compound 15b, (E)-5-(1-Bromo-2-iodovinyl)-uridine] | – | < 4.00 | ≦1 | > 100 | > 100 | 93.6 | > 100 | > 100 |
| CC(=O)OC[C@H]1O[C@@H](n2cc(/C(I)=C\I)c(=O)[nH]c2=O)[C@H](OC(C)=O)[C@@H]1OC(C)=O | 83 to 85 °C | – | – | – | – | – | – | – |
| CC(=O)OC[C@H]1O[C@@H](n2cc(/C(Br)=C\Br)c(=O)[nH]c2=O)[C@H](OC(C)=O)[C@@H]1OC(C)=O | 83 to 85 °C | – | – | – | – | – | – | – |
| CC(=O)OC[C@H]1O[C@@H](n2cc(/C(Br)=C\I)c(=O)[nH]c2=O)C[C@@H]1OC(C)=O | 82 to 84 °C | – | – | – | – | – | – | – |
| O=c1[nH]c(=O)n([C@H]2C[C@H](O)[C@@H](CO)O2)cc1C#CI [Compound 12a, 5-(2-Iodoethynyl)-2′-deoxyuridine] | 135 to 137 °C | 4.24 | >3.2 | > 182 | > 239 | 15.8 | 7.5 | > 100 |
| O=c1[nH]c(=O)n([C@@H]2O[C@H](CO)[C@@H](O)[C@H]2O)cc1/C(Br)=C\Br [Compound 17b, (E)-5-(1,2-Dibromovinyl)-uridine] | – | < 3.70 | ≦1 | > 200 | > 200 | > 100 | > 100 | 59.8 |
| O=c1[nH]c(=O)n([C@@H]2O[C@H](CO)C[C@H]2O)cc1C#CBr [Compound 13c, 5-(2-Bromoethynyl)-3′-deoxyuridine] | – | < 3.52 | ≦1 | > 300 | > 300 | > 100 | > 100 | 6.4 |
| O=c1[nH]c(=O)n([C@@H]2O[C@H](CO)C[C@H]2O)cc1/C(Cl)=C\I [Compound 16c, (E)-5-(1-Chloro-2-iodovinyl)-3′-deoxyuridine] | – | < 3.70 | ≦1 | > 200 | > 200 | 66.6 | 94.4 | 15.3 |
